In US9783490B2, “Antimicrobial compounds, their synthesis and applications thereof” (The Secretary of State for Health, priority 2012, dated 2017):
Read-outs that look alike come from different tables or passages of the source.

How the values were obtained:
S. aureus (MTCC 737) = assay: Minimum Inhibitory Concentration, micro-dilution broth; type: cell-based, Staphylococcus aureus; conditions: for Minimum Inhibitory Concentration S. aureus: Drug sensitive bacteria
Method: (§1) Microorganisms and Culture Conditions: Bacterial strains, S. aureus (MTCC 737) and E. coli (MTCC 443) are purchased from MTCC (Chandigarh, India). MRSA (ATCC 33591), Pseudomonas aeruginosa (ATCC 4676), […]-lactamase producing and drug-resistant Klebsiella pneumonia (ATCC700603), Enterococcus faecium (ATCC 19634) and vancomycin resistant Enterococcus faecium (ATCC 51559) are obtained from ATCC (Rockville, Md., USA).
(§2) E. coli is cultured in Luria Bertani broth (10 g of tryptone, 5 g of yeast extract, and 10 g of NaCl in 1000 mL of sterile distilled water (pH −7) while S. aureus, Pseudomonas aeruginosa (ATCC 4676) and MRSA are grown in Yeast-dextrose broth (1 g of beef extract, 2 g of yeast extract, 5 g of peptone and 5 g of NaCl in 1000 mL of sterile distilled water). For all Enterococcus faecium, Brain Heart Infusion broth (BHI) is used. For solid media 5% agar was used along with above mentioned composition. K. pneumonia was grown in nutrient media (3 g of beef extract and 5 g of peptone in 1000 mL of sterile distilled water). The bacterial samples were freeze dried and stored at −80° C. 5 μl of these stocks were added to 3 mL of the nutrient broth and the culture was grown for 6 h at 37° C. prior to the experiments.
(§3) Antibacterial activity is reported as Minimum Inhibitory Concentration (MIC), i.e. the lowest concentration of the antimicrobial agent that will inhibit the growth of a microorganism after overnight incubation. Water-soluble ACK, NCK and BCK series of compounds are assayed in a modified micro-dilution broth format. Stock solutions are made by serially diluting the compounds using autoclaved Millipore water. Bacteria, to be tested are grown for about 6 hrs in the suitable media containing ˜10^9 cfu/mL (determined through dilution plate technique by spread plate method), which is then diluted to 10^5 cfu/mL using nutrient media. 50 μL of serially diluted compound is added to a 96 well plate containing 150 μL bacterial solutions. Two controls are made; one containing 150 μL of media and 50 μL of compound and the other containing 200 μL of bacterial solution. […] MIC value is determined by taking the average of triplicate O.D. values for each concentration and plotting it against concentration using Origin Pro 8.0 software. The data is then subjected to sigmoidal fitting. From the curve, MIC value is determined, as the point in the curve where the O.D. is similar to that of control having no bacteria. The MIC values and errors of independent experiments are reported as average and standard deviation of triplicates.

MRSA (ATCC 33591) = assay: as above; type: cell-based, Methicillin resistant S. aureus; conditions: for Minimum Inhibitory Concentration MRSA: Drug resistant bacteria
Method: as §1, §2, §3

E. coli (MTCC 443) = assay: as above; type: cell-based, Escherichia coli; conditions: for Minimum Inhibitory Concentration E. coli: Drug sensitive bacteria
Method: as §1, §2, §3

human RBCs = assay: Haemolytic activity (HC50); type: cell-based
Method: Erythrocytes are isolated from freshly drawn, heparinized human blood and re-suspended to 5 vol % in PBS (pH 7.4). In a 96-well microtiter plate, 150 μl of erythrocyte suspension is added to 50 μl of serially diluted compound. Two controls are made, one without compound and other with 50 μl of 1 vol % solution of Triton X-100. The plate is incubated for about 1 hr at a temperature of about 37° C. The plate is then centrifuged at 3,500 rpm for about 5 min, 100 μl of the supernatant from each well is transferred to a fresh microtiter plate, and absorbance at 540 nm is measured. Percentage of hemolysis is determined as (A−A0)/(Atotal−A0)×100, where A is the absorbance of the test well, A0 the absorbance of the negative controls (without compound), and A total the absorbance of 100% hemolysis wells (with Triton X-100), when absorbance is read at 540 nm.
Toxicity studies of the compounds are carried out on freshly drawn human RBCs. Toxicity of the antimicrobial compounds of the present disclosure is defined by their HC50 values illustrated in Table 3, i.e. the concentration of compound at which 50% of the blood cells are lysed. Haemolytic studies conducted herein illustrates that the antimicrobial compounds provided by the instant disclosure are selective towards drug sensitive bacteria and drug resistant bacteria over human RBCs, thus establishing the non-toxicity of the present compounds.

[1] = test system: vancomycin resistant Enterococcus faecium (ATCC 51559); assay: Minimum Inhibitory Concentration, micro-dilution broth; type: cell-based; conditions: for Minimum Inhibitory Concentration VRE: Drug resistant bacteria
Method: as §1, §2, §3

[2] = test system: Pseudomonas aeruginosa (ATCC 4676); assay: as above; type: cell-based; conditions: for Minimum Inhibitory Concentration P. aeruginosa: Drug sensitive bacteria
Method: as §1, §2, §3

[3] = test system: Enterococcus faecium (ATCC 19634); assay: as above; type: cell-based; conditions: for Minimum Inhibitory Concentration E. faecium: Drug sensitive bacteria
Method: as §1, §2, §3

[4] = test system: drug-resistant Klebsiella pneumonia (ATCC700603); assay: as above; type: cell-based; conditions: for Minimum Inhibitory Concentration K. pneumonia: Drug resistant bacteria
Method: as §1, §2, §3

bacteria = assay: Minimum inhibitory concentration, bacterium not given; type: cell-based
Method: as §3

[5] = concentration at which 50% of the blood cells are lysed, human RBCs

In the case of `CCCCCCCCN(Cc1cccc2ccccc12)C(=O)C(N)CCCCN.O=C(O)C(F)(F)F` (stereo not drawn) [NCK-8, Lys-N-octyl-1-Aminomethylnaphthalene trifluoroacetate], the “MIC value against S. aureus” value (S. aureus (MTCC 737)) is reported as “about 6.3 μg/ml”, the “Minimum Inhibitory Concentration S. aureus” value (S. aureus (MTCC 737)) is reported as 6.3 µg/mL and the “MIC value against methicillin-resistant S. aureus” value (MRSA (ATCC 33591)) is reported as “about 4.4 μg/ml”. The “Minimum Inhibitory Concentration MRSA” value (MRSA (ATCC 33591)) was 4.4 µg/mL, the “MIC value against E. coli” value (E. coli (MTCC 443)) was “about 5 μg/ml” and the “Minimum Inhibitory Concentration E. coli” value (E. coli (MTCC 443)) was 5 µg/mL. For the same molecule, the HC50 (human RBCs; [5]) was 60 µg/mL, the “MIC value against vancomycin-resistant E. faecium” value [1] was “about 7 μg/ml” and the “Minimum Inhibitory Concentration VRE” value [1] was 7 µg/mL. For the same molecule, the “MIC value against P. aeruginosa” value [2] was roughly 5.4 µg/mL, the “Minimum Inhibitory Concentration P. aeruginosa” value [2] was 5.4 µg/mL and the “MIC value against E. faecium” value [3] was “about 5.5 μg/ml”. For the same molecule, the “Minimum Inhibitory Concentration E. faecium” value [3] was 5.5 µg/mL, the “MIC value against K. pneumonia” value [4] was “about 13 μg/ml” and the “Minimum Inhibitory Concentration K. pneumonia” value [4] was 13 µg/mL.

In the case of `CCCCCCCCCCN(Cc1cccc2ccccc12)C(=O)[C@@H](N)CCCCN.O=C(O)C(F)(F)F` [NCK-10, Lys-N-decyl-1-Aminomethylnaphthalene trifluoroacetate], the “MIC value against S. aureus” value (S. aureus (MTCC 737)) is reported as roughly 2.5 µg/mL, the “Minimum Inhibitory Concentration S. aureus” value (S. aureus (MTCC 737)) is reported as 2.5 µg/mL and the “MIC value against methicillin-resistant S. aureus” value (MRSA (ATCC 33591)) is reported as roughly 2.6 µg/mL. The “Minimum Inhibitory Concentration MRSA” value (MRSA (ATCC 33591)) was 2.6 µg/mL, the “MIC value against E. coli” value (E. coli (MTCC 443)) was roughly 4 µg/mL and the “Minimum Inhibitory Concentration E. coli” value (E. coli (MTCC 443)) was 4 µg/mL. The HC50 (human RBCs; [5]) was 54 µg/mL, the “MIC value against vancomycin-resistant E. faecium” value [1] was roughly 1.6 µg/mL and the “Minimum Inhibitory Concentration VRE” value [1] was 1.6 µg/mL. For the same molecule, the “MIC value against P. aeruginosa” value [2] was roughly 3 µg/mL, the “Minimum Inhibitory Concentration P. aeruginosa” value [2] was 3 µg/mL and the “MIC value against E. faecium” value [3] was roughly 3.5 µg/mL. The “Minimum Inhibitory Concentration E. faecium” value [3] was 3.5 µg/mL, the “MIC value against K. pneumonia” value [4] was roughly 5.8 µg/mL and the “Minimum Inhibitory Concentration K. pneumonia” value [4] was 5.8 µg/mL.

`CCCCCCCCCCCCN(Cc1cccc2ccccc12)C(=O)[C@@H](N)CCCCN.O=C(O)C(F)(F)F` [NCK-12, Lys-N-dodecyl-1-Aminomethylnaphthalene trifluoroacetate] was tested, and the “MIC value against S. aureus” value (S. aureus (MTCC 737)) was roughly 3 µg/mL, the “Minimum Inhibitory Concentration S. aureus” value (S. aureus (MTCC 737)) was 3 µg/mL and the “MIC value against methicillin-resistant S. aureus” value (MRSA (ATCC 33591)) was roughly 2.7 µg/mL. For the same molecule, the “Minimum Inhibitory Concentration MRSA” value (MRSA (ATCC 33591)) was 2.7 µg/mL, the “MIC value against E. coli” value (E. coli (MTCC 443)) was roughly 3.1 µg/mL and the “Minimum Inhibitory Concentration E. coli” value (E. coli (MTCC 443)) was 3.1 µg/mL. For the same molecule, the HC50 (human RBCs; [5]) was 56 µg/mL, the “MIC value against vancomycin-resistant E. faecium” value [1] was roughly 3.4 µg/mL and the “Minimum Inhibitory Concentration VRE” value [1] was 3.4 µg/mL. The “MIC value against P. aeruginosa” value [2] was roughly 3.2 µg/mL, the “Minimum Inhibitory Concentration P. aeruginosa” value [2] was 3.2 µg/mL and the “MIC value against E. faecium” value [3] was roughly 1.6 µg/mL. The “Minimum Inhibitory Concentration E. faecium” value [3] was 1.6 µg/mL, the “MIC value against K. pneumonia” value [4] was roughly 4 µg/mL and the “Minimum Inhibitory Concentration K. pneumonia” value [4] was 4 µg/mL.

Lys-N-octylaminodecane [Dec-CK-8] was tested, and the “Minimum Inhibitory Concentration S. aureus” value (S. aureus (MTCC 737)) was 3.1 µg/mL, the “MIC value against methicillin-resistant S. aureus” value (MRSA (ATCC 33591)) was 3 µg/mL and the “Minimum Inhibitory Concentration MRSA” value (MRSA (ATCC 33591)) was 3 µg/mL. For the same molecule, the “Minimum Inhibitory Concentration E. coli” value (E. coli (MTCC 443)) was 3.1 µg/mL, the “active concentration against all bacteria” value (bacteria) was “below 5.6 μg/ml” and the HC50 (human RBCs) was 82 µg/mL. The “HC50 values” (human RBCs) was 82 µg/mL, the “Minimum Inhibitory Concentration VRE” value [1] was 3.3 µg/mL and the “Minimum Inhibitory Concentration P. aeruginosa” value [2] was 4.2 µg/mL. The “MIC value against E. faecium” value [3] was 3 µg/mL, the “Minimum Inhibitory Concentration E. faecium” value [3] was 3 µg/mL and the “Minimum Inhibitory Concentration K. pneumonia” value [4] was 5.6 µg/mL.
